Reference: US20180200257A1, “METHODS FOR THE TREATMENT OF INFLAMMATORY DISORDERS” (Galapagos NV, priority 2015, published 2018)

Test system: subjects with moderately to severely active RA who have an inadequate response to methotrexate (MTX)
Test: Study 1 (add-on to MTX) - Alanine Aminotransferase (ALT) levels
Format: in vivo, human
Procedure: Double-blind, placebo-controlled add on study in subjects with moderately to severely active RA who have an inadequate response to methotrexate (MTX) (oral or parenteral).
595 subjects randomized to one of 6 dose regimens of Compound 1 (dosed as [Compound 1:HCl:3H2O]) (3 dose levels administered either once or twice daily) or placebo on top of each subject's stable dose of MTX.
Compound 1 (dosed as [Compound 1:HCl:3H2O]) is dosed for twelve weeks once daily (q.d.) (50 mg, 100 mg or 200 mg) or twice daily (b.i.d.) (25 mg, 50 mg or 100 mg); or placebo.
At Week 12, the subjects on placebo who have not achieved 20% improvement in swollen joint count (SJC66) and tender joint count (TJC68) are re-randomized automatically to receive Compound 1 (dosed as a [Compound 1:HCl:3H2O]) either at 100 mg q.d. or 50 mg b.i.d. doses in a blinded fashion; subjects on 50 mg q.d. who have not achieved 20% improvement in SJC66 and TJC68 will be assigned to 100 mg q.d. and subjects on 25 mg b.i.d. that have not achieved a 20% improvement in SJC66 and TJC68 will be assigned to 50 mg b.i.d. Subjects who switch treatment at week 12 are handled as if they discontinued at week 12 for the purpose of statistical analysis, whereas subjects in the other groups will maintain their randomized treatment until Week 24.
ALT levels determination is available at Quest Diagnostics, Clinical Trials, Quest House, 125-135 Staines Road, Hounslow, Middlesex, TW3 3JB, United Kingdom under Catalogue n#84460.
ALT catalyzes the exchange of the amino group of alanine with the oxogroup of 2-ketoglutarate to form pyruvate and glutamate. In the presence of lactic dehydrogenase, pyruvate reacts with NADH to form NAD+, measured spectrophotometrically. Guidelines for the ALT value have been issued by the association for Clinical Biochemistry and Laboratory Medicine, 130-132 Tooley Street LONDON SE1 2TU, united Kingdom, wherein the ALT value should be below 34 U/l in Female and below 52 U/L in male.

[1] = 12 weeks results, 50 mg q.d., week 1
[2] = 12 weeks results, 50 mg q.d., week 2
[3] = 12 weeks results, 50 mg q.d., week 4
[4] = 12 weeks results, 50 mg q.d., week 8
[5] = 12 weeks results, 50 mg q.d., week 12
[6] = 12 weeks results, 100 mg q.d., week 1
[7] = 12 weeks results, 100 mg q.d., week 2
[8] = 12 weeks results, 100 mg q.d., week 4
[9] = 12 weeks results, 100 mg q.d., week 8
[10] = 12 weeks results, 100 mg q.d., week 12
[11] = 12 weeks results, 200 mg q.d., week 1
[12] = 12 weeks results, 200 mg q.d., week 2
[13] = 12 weeks results, 200 mg q.d., week 4
[14] = 12 weeks results, 200 mg q.d., week 8
[15] = 12 weeks results, 200 mg q.d., week 12
[16] = 12 weeks results, 2 × 25 mg b.i.d., week 1
[17] = 12 weeks results, 2 × 25 mg b.i.d., week 2
[18] = 12 weeks results, 2 × 25 mg b.i.d., week 4
[19] = 12 weeks results, 2 × 25 mg b.i.d., week 8
[20] = 12 weeks results, 2 × 25 mg b.i.d., week 12
[21] = 12 weeks results, 2 × 50 mg b.i.d., week 1
[22] = 12 weeks results, 2 × 50 mg b.i.d., week 2
[23] = 12 weeks results, 2 × 50 mg b.i.d., week 4
[24] = 12 weeks results, 2 × 50 mg b.i.d., week 8
[25] = 12 weeks results, 2 × 50 mg b.i.d., week 12
[26] = 12 weeks results, 2 × 100 mg b.i.d., week 1
[27] = 12 weeks results, 2 × 100 mg b.i.d., week 2
[28] = 12 weeks results, 2 × 100 mg b.i.d., week 4
[29] = 12 weeks results, 2 × 100 mg b.i.d., week 8
[30] = 12 weeks results, 2 × 100 mg b.i.d., week 12
[31] = 24 weeks results, continued 25 mg b.i.d., week 1
[32] = 24 weeks results, continued 25 mg b.i.d., week 2
[33] = 24 weeks results, continued 25 mg b.i.d., week 4
[34] = 24 weeks results, continued 25 mg b.i.d., week 8
[35] = 24 weeks results, continued 25 mg b.i.d., week 12
[36] = 24 weeks results, continued 25 mg b.i.d., week 16
[37] = 24 weeks results, continued 25 mg b.i.d., week 20
[38] = 24 weeks results, continued 25 mg b.i.d., week 24
[39] = 24 weeks results, continued 50 mg b.i.d., week 1
[40] = 24 weeks results, continued 50 mg b.i.d., week 2
[41] = 24 weeks results, continued 50 mg b.i.d., week 4
[42] = 24 weeks results, continued 50 mg b.i.d., week 8
[43] = 24 weeks results, continued 50 mg b.i.d., week 12
[44] = 24 weeks results, continued 50 mg b.i.d., week 16
[45] = 24 weeks results, continued 50 mg b.i.d., week 20
[46] = 24 weeks results, continued 50 mg b.i.d., week 24
[47] = 24 weeks results, continued 50 mg q.d., week 1
[48] = 24 weeks results, continued 50 mg q.d., week 2
[49] = 24 weeks results, continued 50 mg q.d., week 4
[50] = 24 weeks results, continued 50 mg q.d., week 8

In the case of `O=C(Nc1nc2cccc(-c3ccc(CN4CCS(=O)(=O)CC4)cc3)n2n1)C1CC1` [Compound 1, cyclopropanecarboxylic acid {5-[4-(1,1-dioxo-thiomorpholin-4-ylmethyl)-phenyl]-[1,2,4]triazolo[1,5-a]pyridin-2-yl}-amide], the “Study 1 - ALT Mean CFB” value [1] is reported as 1 IU/L, the “Study 1 - ALT Mean percentage CFB” value [1] is reported as 5% and the “Study 1 - ALT Mean CFB” value [2] is reported as −1 IU/L. The “Study 1 - ALT Mean percentage CFB” value [2] was 0%, the “Study 1 - ALT Mean CFB” value [3] was −1 IU/L and the “Study 1 - ALT Mean percentage CFB” value [3] was 4%. The “Study 1 - ALT Mean CFB” value [4] was 0 IU/L, the “Study 1 - ALT Mean percentage CFB” value [4] was 9% and the “Study 1 - ALT Mean CFB” value [5] was 0 IU/L. The “Study 1 - ALT Mean percentage CFB” value [5] was 12%, the “Study 1 - ALT Mean CFB” value [6] was 3 IU/L and the “Study 1 - ALT Mean percentage CFB” value [6] was 14%. For the same molecule, the “Study 1 - ALT Mean CFB” value [7] was 1 IU/L, the “Study 1 - ALT Mean percentage CFB” value [7] was 9% and the “Study 1 - ALT Mean CFB” value [8] was 1 IU/L. For the same molecule, the “Study 1 - ALT Mean percentage CFB” value [8] was 9%, the “Study 1 - ALT Mean CFB” value [9] was 2 IU/L and the “Study 1 - ALT Mean percentage CFB” value [9] was 15%. The “Study 1 - ALT Mean CFB” value [10] was 2 IU/L, the “Study 1 - ALT Mean percentage CFB” value [10] was 16% and the “Study 1 - ALT Mean CFB” value [11] was 2 IU/L. The “Study 1 - ALT Mean percentage CFB” value [11] was 11%, the “Study 1 - ALT Mean CFB” value [12] was 1 IU/L and the “Study 1 - ALT Mean percentage CFB” value [12] was 16%. The “Study 1 - ALT Mean CFB” value [13] was 1 IU/L, the “Study 1 - ALT Mean percentage CFB” value [13] was 15% and the “Study 1 - ALT Mean CFB” value [14] was 4 IU/L. For the same molecule, the “Study 1 - ALT Mean percentage CFB” value [14] was 31%, the “Study 1 - ALT Mean CFB” value [15] was 3 IU/L and the “Study 1 - ALT Mean percentage CFB” value [15] was 34%. The “Study 1 - ALT Mean CFB” value [16] was −1 IU/L, the “Study 1 - ALT Mean percentage CFB” value [16] was 4% and the “Study 1 - ALT Mean CFB” value [17] was −2 IU/L. The “Study 1 - ALT Mean percentage CFB” value [17] was 2%, the “Study 1 - ALT Mean CFB” value [18] was −1 IU/L and the “Study 1 - ALT Mean percentage CFB” value [18] was 9%. For the same molecule, the “Study 1 - ALT Mean CFB” value [19] was 0 IU/L, the “Study 1 - ALT Mean percentage CFB” value [19] was 11% and the “Study 1 - ALT Mean CFB” value [20] was 1 IU/L. The “Study 1 - ALT Mean percentage CFB” value [20] was 21%, the “Study 1 - ALT Mean CFB” value [21] was 1 IU/L and the “Study 1 - ALT Mean percentage CFB” value [21] was 8%. For the same molecule, the “Study 1 - ALT Mean CFB” value [22] was 1 IU/L, the “Study 1 - ALT Mean percentage CFB” value [22] was 13% and the “Study 1 - ALT Mean CFB” value [23] was 3 IU/L. The “Study 1 - ALT Mean percentage CFB” value [23] was 24%, the “Study 1 - ALT Mean CFB” value [24] was 2 IU/L and the “Study 1 - ALT Mean percentage CFB” value [24] was 20%. For the same molecule, the “Study 1 - ALT Mean CFB” value [25] was 2 IU/L, the “Study 1 - ALT Mean percentage CFB” value [25] was 28% and the “Study 1 - ALT Mean CFB” value [26] was 1 IU/L. For the same molecule, the “Study 1 - ALT Mean percentage CFB” value [26] was 9%, the “Study 1 - ALT Mean CFB” value [27] was 1 IU/L and the “Study 1 - ALT Mean percentage CFB” value [27] was 10%. The “Study 1 - ALT Mean CFB” value [28] was 1 IU/L, the “Study 1 - ALT Mean percentage CFB” value [28] was 20% and the “Study 1 - ALT Mean CFB” value [29] was 1 IU/L. The “Study 1 - ALT Mean percentage CFB” value [29] was 25%, the “Study 1 - ALT Mean CFB” value [30] was 2 IU/L and the “Study 1 - ALT Mean percentage CFB” value [30] was 26%. The “Study 1 - ALT Mean CFB” value [31] was 0.8 IU/L, the “Study 1 - ALT Mean percentage CFB” value [31] was 8.9% and the “Study 1 - ALT Mean CFB” value [32] was −0.4 IU/L. The “Study 1 - ALT Mean percentage CFB” value [32] was 5.4%, the “Study 1 - ALT Mean CFB” value [33] was 0.3 IU/L and the “Study 1 - ALT Mean percentage CFB” value [33] was 10.9%. For the same molecule, the “Study 1 - ALT Mean CFB” value [34] was 1.8 IU/L, the “Study 1 - ALT Mean percentage CFB” value [34] was 18.4% and the “Study 1 - ALT Mean CFB” value [35] was 2.5 IU/L. The “Study 1 - ALT Mean percentage CFB” value [35] was 28.6%, the “Study 1 - ALT Mean CFB” value [36] was 1.2 IU/L and the “Study 1 - ALT Mean percentage CFB” value [36] was 21.4%. The “Study 1 - ALT Mean CFB” value [37] was 0.0 IU/L, the “Study 1 - ALT Mean percentage CFB” value [37] was 15.2% and the “Study 1 - ALT Mean CFB” value [38] was 1.4 IU/L. The “Study 1 - ALT Mean percentage CFB” value [38] was 25.1%, the “Study 1 - ALT Mean CFB” value [39] was 0.6 IU/L and the “Study 1 - ALT Mean percentage CFB” value [39] was 8.5%. The “Study 1 - ALT Mean CFB” value [40] was 1.2 IU/L, the “Study 1 - ALT Mean percentage CFB” value [40] was 13.0% and the “Study 1 - ALT Mean CFB” value [41] was 2.5 IU/L. For the same molecule, the “Study 1 - ALT Mean percentage CFB” value [41] was 24.2%, the “Study 1 - ALT Mean CFB” value [42] was 2.2 IU/L and the “Study 1 - ALT Mean percentage CFB” value [42] was 20.3%. For the same molecule, the “Study 1 - ALT Mean CFB” value [43] was 2.1 IU/L, the “Study 1 - ALT Mean percentage CFB” value [43] was 27.6% and the “Study 1 - ALT Mean CFB” value [44] was 1.6 IU/L. The “Study 1 - ALT Mean percentage CFB” value [44] was 20.1%, the “Study 1 - ALT Mean CFB” value [45] was 3.0 IU/L and the “Study 1 - ALT Mean percentage CFB” value [45] was 26.2%. The “Study 1 - ALT Mean CFB” value [46] was 1.8 IU/L, the “Study 1 - ALT Mean percentage CFB” value [46] was 18.7% and the “Study 1 - ALT Mean CFB” value [47] was 0.9 IU/L. For the same molecule, the “Study 1 - ALT Mean percentage CFB” value [47] was 6.6%, the “Study 1 - ALT Mean CFB” value [48] was −0.7 IU/L and the “Study 1 - ALT Mean percentage CFB” value [48] was 1.4%. For the same molecule, the “Study 1 - ALT Mean CFB” value [49] was −0.6 IU/L, the “Study 1 - ALT Mean percentage CFB” value [49] was 4.8% and the “Study 1 - ALT Mean CFB” value [50] was 0.4 IU/L. For the same molecule, the “Study 1 - ALT Mean percentage CFB” value [50] was 10.6%.
